Measurements from patent US20250340577A1, “BETA-LACTOMASE INHIBITORS AND USES THEREOF” (Case Western Reserve University, priority 2021, published 2025).
Where two headings read alike, the source gives them in different places.

How the values were obtained:
Format in all cases: cell-based
K. pneum blaKPC-2 = assay: MIC of antibiotics in combination with 10 μg/mL of ceftolozane-like BATSIs; details: FEP + 10 μg/mL compound
K. pneum KPC-Kpn = assay: as above; details: FEP + 10 μg/mL compound
blaPDC-3E221K = assay: as above; details: CAZ + 10 μg/mL compound
blaADC-7 = assay: as above; details: CAZ + 10 μg/mL compound
blaCTXM-9 = assay: as above; details: FEP + 10 μg/mL compound
blaCMY-2 = assay: as above; details: CAZ + 10 μg/mL compound
18SH = assay: as above; details: CAZ + 10 μg/mL compound
E. coli pLTCF2 = assay: MIC with cefepime, agar microdilution, CLSI; details: compound fixed at 4 ug/ml
Description: (§1) Minimum inhibitory concentration (MIC) of MB076 and derivatives (PCF_038-043) in combination with cefepime.
(§2) MICs were determined by the Agar microdilution method, following CLSI guidelines. Compounds were tested at fixed concentration of 4 ug/ml in combination with cefepime.

E. coli pLTCF1 = assay: MIC with cefepime, agar microdilution, CLSI; details: compound fixed at 4 ug/ml; CTX-M group 9
Description: as §1, §2

[1] = test system: E. coli DH10B pBC-SK control; assay: MIC with cefepime, agar microdilution, CLSI; details: compound fixed at 4 ug/ml; B-lactamases none
Description: as §1, §2

K. pneumoniae ST258 C3 = assay: MIC with cefepime, agar microdilution, CLSI; details: compound fixed at 4 ug/ml; KPC-3
Description: as §1, §2

[2] = test system: K. pneumoniae original KPC-2; assay: MIC with cefepime, agar microdilution, CLSI; details: compound fixed at 4 ug/ml
Description: as §1, §2

K. pneumoniae 427 = assay: MIC with cefepime, agar microdilution, CLSI; details: compound fixed at 4 ug/ml; TEM-1, SHV-1, CTX-M-3
Description: as §1, §2

K. pneumoniae 253 = assay: MIC with cefepime, agar microdilution, CLSI; details: compound fixed at 4 ug/ml; TEM-12, SHV-5, CTX-M
Description: as §1, §2

E. coli ATCC BAA202 = assay: MIC with cefepime, agar microdilution, CLSI; details: compound fixed at 4 ug/ml; SHV-1
Description: as §1, §2

K. pneumoniae 255 = assay: MIC with cefepime, agar microdilution, CLSI; details: compound fixed at 4 ug/ml; TEM-1, SHV-2
Description: as §1, §2

A. baumannii 0057 = assay: MIC with cefepime, agar microdilution, CLSI; details: compound fixed at 4 ug/ml; ADC-7
Description: as §1, §2

K. pneumoniae ST258 B5 = assay: MIC with cefepime, agar microdilution, CLSI; details: compound fixed at 4 ug/ml; KPC-2
Description: as §1, §2

[3] = test system: E. coli DH10B pBC-SK SHV-2; assay: MIC with cefepime, agar microdilution, CLSI; details: compound fixed at 4 ug/ml
Description: as §1, §2

[4] = test system: E. coli DH10B pBC-SK PDC-3; assay: MIC with cefepime, agar microdilution, CLSI; details: compound fixed at 4 ug/ml
Description: as §1, §2

E. coli DH10B pBC-SK P99 = assay: MIC with cefepime, agar microdilution, CLSI; details: compound fixed at 4 ug/ml
Description: as §1, §2

K. pneumoniae 34700 = assay: MIC with cefepime, agar microdilution, CLSI; details: compound fixed at 4 ug/ml; CTX-M-15, SHV, TEM
Description: as §1, §2

K. pneumoniae ST17 = assay: MIC with cefepime, agar microdilution, CLSI; details: compound fixed at 4 ug/ml; KPC-2, TEM, SHV, CTX-M-Group 1
Description: as §1, §2

E. coli 29838 = assay: MIC with cefepime, agar microdilution, CLSI; details: compound fixed at 4 ug/ml; CTX-M-14, TEM-1
Description: as §1, §2

[5] = test system: E. coli DH10B pBC-SK KPC-2; assay: MIC with cefepime, agar microdilution, CLSI; details: compound fixed at 4 ug/ml
Description: as §1, §2

K. pneumoniae 266 = assay: MIC with cefepime, agar microdilution, CLSI; details: compound fixed at 4 ug/ml; SHV-5
Description: as §1, §2

[6] = test system: Klebsiella pneumonia/BAA-1705; assay: MIC of MB076 alone or in combination with cefepime or meropenem; details: Klebsiella pneumoniae, BAA1705
Description: as §2

[7] = test system: Klebsiella pneumonia/FDA-CDC AR-BANK#0097; assay: as above; details: Klebsiella pneumoniae
Description: as §2

[8] = test system: Klebsiella pneumonia/FDA-CDC AR-BANK#0098; assay: as above; details: Klebsiella pneumoniae
Description: as §2

SMILES	MIC of cefepime in combination with compound (E. coli pLTCF2) [µg/mL]	MIC of cefepime in combination with compound (E. coli pLTCF1) [µg/mL]	MIC of cefepime in combination with compound [1] [µg/mL]	MIC of cefepime in combination with compound (K. pneumoniae ST258 C3) [µg/mL]	MIC of cefepime in combination with compound [2] [µg/mL]	MIC of cefepime in combination with compound (K. pneumoniae 427) [µg/mL]	MIC of cefepime in combination with compound (K. pneumoniae 253) [µg/mL]	MIC of cefepime in combination with compound (E. coli ATCC BAA202) [µg/mL]	MIC of cefepime in combination with compound (K. pneumoniae 255) [µg/mL]	MIC of cefepime in combination with compound (A. baumannii 0057) [µg/mL]	MIC of cefepime in combination with compound (K. pneumoniae ST258 B5) [µg/mL]	MIC of cefepime in combination with compound [3] [µg/mL]	MIC of cefepime in combination with compound [4] [µg/mL]	MIC of cefepime in combination with compound (E. coli DH10B pBC-SK P99) [µg/mL]	MIC of cefepime in combination with compound (K. pneumoniae 34700) [µg/mL]	MIC of cefepime in combination with compound (K. pneumoniae ST17) [µg/mL]	MIC of cefepime in combination with compound (E. coli 29838) [µg/mL]	MIC of cefepime in combination with compound [5] [µg/mL]	MIC of cefepime in combination with compound (K. pneumoniae 266) [µg/mL]	further results
CC(C)(O/N=C(\C(=O)NCB(O)O)c1nsc(N)n1)C(=O)O [PCF_013]																				MIC values of antibiotics in combination with 10 μg/mL of compounds (K. pneum blaKPC-2): 16 µg/mL; MIC values of antibiotics in combination with 10 μg/mL of compounds (K. pneum KPC-Kpn): 16 µg/mL; MIC values of antibiotics in combination with 10 μg/mL of compounds (blaPDC-3E221K): 8 µg/mL; MIC values of antibiotics in combination with 10 μg/mL of compounds (blaADC-7): 4 µg/mL; MIC values of antibiotics in combination with 10 μg/mL of compounds (blaCTXM-9): 4 µg/mL; MIC values of antibiotics in combination with 10 μg/mL of compounds (blaCMY-2): 64 µg/mL; MIC values of antibiotics in combination with 10 μg/mL of compounds (18SH): 64 µg/mL
O=C(CNn1cnnc1S)N[C@@H](Cn1cc(C(=O)O)nn1)B(O)O [PCF_039]	< 0.25	< 0.25	< 0.25	< 0.25	0.5	< 0.25	1	< 0.25	2	32	4	< 0.25	< 0.25	< 0.25	1	16	< 0.25	< 0.25	< 0.25	
O=C(CNc1nnc(S)s1)N[C@@H](Cn1cc(C(=O)O)nn1)B(O)O [PCF_041]	< 0.25	0.5	< 0.25	1	0.5	0.5	2	0.5		64	16	< 0.25	< 0.25	< 0.25	2	16	< 0.25	< 0.25	< 0.25	
CC(C)(O/N=C(\C(=O)N[C@@H](Cn1cc(C(=O)O)nn1)B(O)O)c1nsc(N)n1)C(=O)O [PCF_014]																				MIC values of antibiotics in combination with 10 μg/mL of compounds (K. pneum blaKPC-2): 32 µg/mL; MIC values of antibiotics in combination with 10 μg/mL of compounds (K. pneum KPC-Kpn): 32 µg/mL; MIC values of antibiotics in combination with 10 μg/mL of compounds (blaPDC-3E221K): 32 µg/mL; MIC values of antibiotics in combination with 10 μg/mL of compounds (blaADC-7): 8 µg/mL; MIC values of antibiotics in combination with 10 μg/mL of compounds (blaCTXM-9): 2 µg/mL; MIC values of antibiotics in combination with 10 μg/mL of compounds (blaCMY-2): 64 µg/mL; MIC values of antibiotics in combination with 10 μg/mL of compounds (18SH): 64 µg/mL
O=C(CSc1ccccn1)N[C@@H](Cn1cc(C(=O)O)nn1)B(O)O [PCF_042]	< 0.25	< 0.25	< 0.25	0.5	< 0.25	< 0.25		< 0.25	2	64	16	< 0.25	< 0.25	< 0.25	1	32	< 0.25		< 0.25	
Cc1nnc(SCC(=O)N[C@@H](Cn2cc(C(=O)O)nn2)B(O)O)[nH]1 [PCF_038]	< 0.25	< 0.25	< 0.25	0.5	< 0.25	< 0.25	2	0.5	2	64	16	< 0.25	< 0.25	< 0.25	1	32	< 0.25	< 0.25	< 0.25	
O=C(CS)N[C@@H](Cn1cc(C(=O)O)nn1)B(O)O [PCF_043]	< 0.25	1	< 0.25	2	1	1	4	1	4	32	16	< 0.25	< 0.25	1	4	32	0.5	1	< 0.25	
CN(C)c1cc(NC(=O)CNC(C)(C)C)c(O)c2c1C[C@H]1C[C@H]3[C@H](N(C)C)C(O)=C(C(N)=O)C(=O)[C@@]3(O)C(O)=C1C2=O [Tigecycline]																				MIC [6]: 2 µg/mL; MIC [7]: 4 µg/mL; MIC [8]: 1 µg/mL
C[C@@H](O)[C@H]1C(=O)N2C(C(=O)O)=C(S[C@@H]3CN[C@H](C(=O)N(C)C)C3)[C@H](C)[C@H]12 [Meropenem, meropenem]																				MIC ([6]; single agent, read-out: MIC): 32 µg/mL; MIC ([7]; single agent, read-out: MIC): > 32 µg/mL; MIC ([8]; single agent, read-out: MIC): 16 µg/mL
O=C(CSC1=NCCS1)NC(Cn1cc(C(=O)O)nn1)B(O)O (centres unmarked) [PCF_040]	< 0.25	0.5	< 0.25	2	2	1	4	2	2	32	32	0.5	< 0.25	< 0.25	4	32	0.5	1	< 0.25	
